Laboratory results from PMC11117691, “Flipping the GPCR Switch: Structure-Based Development of Selective Cannabinoid Receptor 2 Inverse Agonists” (ACS Central Science, 2024).

Legend:
[1] = molecular target: T1, hCB2R (Homo sapiens, UniProt P34972); type: cell-based; set-up: expressed in transfected cells; host or cells: HEK293TR cells, tetracycline-induced, live cells; settings: HEK293TR-CB2R-nLuc cells, representative of N = 3
Protocol: HEPES. Following the wash, assay buffer containing 10 μM furimazine, 90 μL/well was added
to the wells. The plate was then incubated at 37 °C for 15 minutes to allow the nanoLuc substrate
furimazine to enter the cells. Three BRET cycles of 1-minute intervals were performed to assess
basal BRET levels, following which 10 μL of each compound, diluted in assay buffer was added
to the assay plate, which was read at 1-minute intervals for 30 minutes.
Buffer containing 10% DMSO (1% final) served as the vehicle control and
The assay buffer used to profile compounds in the CB 2R Gi-CASE system consisted of HBSS
containing 0.02% pluronic F127, 0.5% BSA and 5 mM HEPES. The reference compounds HU -
polypropylene plate. 0.5 µL of the reference and test compound serial dilutions was then added to
a white 384 well OptiplateTM (PerkinElmer) containing 39.5 μL of assay buff er. Finally, the CB 2R
membranes containing the G i-CASE biosensor were thawed and added into assay buffer containing
50 µM furimazine. Membranes (10 μL) were added to the assay plate at a final concentration of 5
µg/well. The total assay volume was 50 µL.

[2] = molecular target: T1, hCB2R; assay: Radioligand binding assay with [3H]-CP55,940; set-up: expressed in transfected cells; settings: [3H]-CP55,940 competition, CHO-hCB2R membranes, 2 h at 30 °C
Protocol: For bindings experiments CHO cells stably expressing the human CB2R were used.14 […]
Radioligand binding assays were performed with [3H]-CP55,940 (Perkin Elmer, Austria) .
Membrane preparation was carried out according to previously published protocols.15 Briefly, competition binding experiments were carried out in duplicates at a final volume of 300 µL containing binding buffer (50 mM Tris-HCl, 2.5mM EDTA, 5 mM MgCl2, 0.5 mg/mL fatty acid-free BSA; pH 7.4), [3H]-CP55,940 (0.3 nM final concentration), compounds (semi logarithmically -spaced concentrations ranging from 0.1 nM to 10 µM) and membranes (2 µg/assay) in silanized glass vials. The reaction mixture was incubated for 2 h at 30 °C. Nonspecific binding was determined in the presence of AM630 (10 µM). Bound radioligand was separated from free radioligand by rapid filtration using 0.1% polyethlyenimine -presoaked GF/C glass fiber filter and a Skatron cell harvester. The radioactivity retained on the filters was measured by liquid scintillation. IC 50 and Ki values obtained from radioligand competition binding assays were determined by fitting the data to a three-parameter logistic Hill equation and applying the Cheng and Prusoff approximation. Data were normalized to specific binding of [3H]-CP55,940 in absence of compounds as maximum percentage (100%), which refers to an average of 4500 -5000 fmoles/mg protein for CB2R. […]

[3] = molecular target: T1, hCB2R; assay: TR-FRET kinetic binding assay at CB2R; set-up: expressed in transfected cells; host or cells: HEK293-TR cells, tetracycline-induced; membrane preparations; settings: for ΔΔG (Experimental): (R)-3 in comparison to (S)-3, from experimental Kd values
[4] = molecular target: T1, hCB2R; assay: TR-FRET saturation binding assay at CB2R; set-up: expressed in transfected cells; host or cells: HEK293-TR cells, tetracycline-induced; membrane preparations; settings: TR-FRET, room temperature, HEK293 membranes of SNAP-Lumi4-Tb labeled hCB2R
[5] = molecular target: T1, hCB2R; assay: BRET Gi-CASE G protein recruitment membrane assay; type: biochemical; set-up: expressed in transfected cells; host or cells: HEK293-TR cells, tetracycline-induced; membrane preparations; settings: hCB2R-HEK293 T-REx membranes, mean N = 3–4; read-out: pEC50 (Gi-CASE G protein recruitment) (converted)
[6] = molecular target: T1, hCB2R; assay: cAMP HTRF assay in hCB2R-CHO cells; type: cell-based; set-up: expressed in transfected cells
From the text: One of the canonical signaling pathways of CB2R involves association with Gαi/o proteins, which elicit reversible inhibition of adenylyl cyclase resulting in a decrease of cellular cAMP levels and suppression of protein kinase A activity.[67] Consequently, we have investigated the change in cAMP levels upon probe addition using homogeneous time-resolved fluorescence (HTRF) cAMP assay (Table 3).
Homogeneous Time-Resolved Fluorescence (HTRF) cAMP assay
The homogeneous time-resolved fluorescence (HTRF) cAMP assay was conducted according to the manufacturer’s protocol for the cAMP-Gs Dynamic kit (Cisbio). Briefly, the CHO cell line stably overexpressing CB2R was maintained in Ham’s F12 supplemented with 10% FBS, penicillin (100 U/mL, Gibco-ThermoFisher), streptomycin (100 μg/mL, Gibco-ThermoFisher) and G418 (400 μg/mL, ThermoFisher). For CB2R compounds test, the cells were harvested with Cell Dissociation Buffer, resuspended in F-12 K at 0.4×10^6 cells/mL, and dispensed into 384-well low volume plates at 2000 cells/5 μL per well. The cells were stimulated with compounds diluted in Stimulation Buffer (2.5 μL/well) for 15 min at room temperature, followed by the addition of forsklin (2.5 μL 25 μM). After 15 mins incubation, reactions were stopped by 5 μL/well cAMP-d2 conjugate working solution followed by 5 μL/well of anti-cAMP cryptate working solution. After incubation for 1 h at room temperature, the plates were read in a PerkinElmer Envision reader for Time-Resolved Förster Resonance Energy Transfer (TR-FRET) at 620 nm and 665 nm.
β–arrestin recruitment assay
SNAP-tagged human CB2R HEK293-TR cells were maintained in a humidified environment at 37 °C and 5% CO2 in Dulbecco’s modified Eagle’s medium (DMEM) with 10% fetal bovine serum (FBS) containing blasticidin (5 µg/mL; Invitrogen) and (Zeocin; 20 µg/mL; Invitrogen). For receptor-inducible expression, cells were seeded into t175 cm2 flasks, grown to 70% confluence and DMEM containing 1 µg/ml tetracycline added.
HEK293TR-CB2R-nLuc cells expressing a fluorescently labelled β-arrestin protein were maintained in a humidified environment at 37 °C and 5% CO2 in Dulbecco’s modified Eagle’s medium (DMEM) with 10% fetal bovine serum (FBS) containing blasticidin (5 µg/mL; Invitrogen), Zeocin (20 µg/mL; Invitrogen) and G418 (0.2 mg/mL; Invitrogen) and used to assess compound stimulated β-arrestin recruitment to the human CB2R. Cultured cells were harvested upon reaching 70% confluency and plated at a seeding density of 50,000 cells per well. The cells were grown for 48 h until they reached confluency and then stimulated with 1 μg/mL tetracycline for a further 48 h to induce CB2R expression. Cell culture media was then aspirated from the wells and the cells were washed with assay buffer, 100 μL/well HBSS containing 0.5% BSA and 5 mM

[7] = 37 °C, hCB2R-HEK293 membranes, mean N = 3

T1 sequence (P34972 whole entry): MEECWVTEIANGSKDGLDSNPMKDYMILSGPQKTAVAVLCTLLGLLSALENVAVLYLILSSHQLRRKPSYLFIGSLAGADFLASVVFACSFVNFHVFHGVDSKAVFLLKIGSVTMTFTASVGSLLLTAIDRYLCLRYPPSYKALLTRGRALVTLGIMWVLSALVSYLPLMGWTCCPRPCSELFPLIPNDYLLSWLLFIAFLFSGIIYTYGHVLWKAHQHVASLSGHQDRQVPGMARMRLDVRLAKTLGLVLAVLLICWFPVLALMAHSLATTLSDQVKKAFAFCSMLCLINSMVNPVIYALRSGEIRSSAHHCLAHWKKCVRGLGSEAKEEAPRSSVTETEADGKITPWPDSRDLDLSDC

Question: How did the “β-arrestin recruitment (BRET signal)” value [1] turn out when `C#CCCC(=O)NCC1=CC(c2c(OC)cc(C(C)(C)C(CCCCCN=[N+]=[N-])c3ccccc3)cc2OC)C2CC1C2(C)C` [(R)-3] was run?
Answer: Baseline BRET signal was retained

Question: What about the Ki [2] of the same molecule?
Answer: 0.66 nM

Question: And the koff [3, 7]?
Answer: 2.29 10^–2 min^–1

Question: What about the kon [3, 7] of the same molecule?
Answer: 88.7 10^6 M^–1 min^–1

Question: What about the “τ (receptor residence time)” value [3, 7] of the same molecule?
Answer: 43.7 min

Question: What about the “ΔΔG (Experimental)” value [3] of the same molecule?
Answer: -0.9 kcal/mol

Question: And the “ΔΔG (Experimental)” value ([3]; listed as (R)–3)?
Answer: –0.90 kcal mol-1

Question: What about the Kd ([3]; kinetic Kd, 37 °C, hCB2R-HEK293 membranes, mean N = 3) of the same molecule?
Answer: 0.26 nM

Question: What about the “ΔG (Experimental)” value ([3]; ΔG exp = RT ln(Kd), T = 310 K, from experimental Kd values) of the same molecule?
Answer: –13.6 kcal mol-1

Question: And the Kd [4]?
Answer: 0.42 nM

Question: And the EC50 [5]?
Answer: 60.3 nM

Question: What about the EC50 ([6]; hCB2R-CHO cells, forskolin stimulated, mean N = 3) of the same molecule?
Answer: 33.1 nM

Question: What about the “Emax (cAMP)” value ([6]; normalized to agonist CP-55,940 response (100%) and basal level (0%)) of the same molecule?
Answer: –55%
